In brackets after ≈: the same amount, converted by molar mass. Where two headings read alike, the source gives them in different places.
Tests used:
MSSA (ATCC 25923) = assay: MIC, broth, methicillin-sensitive S. aureus; settings: for MIC: Staphylococcus aureus, ATCC25923|MSSA, read-out: MIC MSSA; for MIC MSSA: modal value of experimental triplicates
MRSA [1] = assay: Systemic MRSA infection mouse model; assay type: in vivo, Swiss Webster mice; settings: mice, IP infection, 100 mg/kg SC at 1, 12 and 24 hr post infection
[2] = system: Bacillus subtilis (ATCC 6051); assay: MIC, B. subtilis
MRSA [3] = assay: Agar MIC and colony morphology on tryptic soy agar; assay type: cell-based, Staphylococcus aureus
M. tuberculosis = settings: ref Li, X., et al. ACS Med Chem Lett, 2011; cited from earlier work
[4] = system: Proteus mirabilis (ATCC 35659); assay: MIC, P. mirabilis; settings: for MIC: Proteus mirabilis
MRSA cells [5] = assay: Menaquinone-8; assay type: cell-based, Staphylococcus aureus; settings: 1/10, 1/5, 1/3 and ½ MIC
MRSA (BAA 1762) = assay: MIC, broth, methicillin-resistant S. aureus; settings: for MIC: Staphylococcus aureus, BAA1762|MRSA; for MIC MRSA: modal value of experimental triplicates
MRSA [6] = assay: Neutropenic thigh MRSA infection mouse model; assay type: in vivo, Swiss Webster mice; settings: for Reduction of bacterial load in thigh: neutropenic mice, 100 mg/kg SC at 1 and 12 hr post infection
[7] = system: Pseudomonas aeruginosa (ATCC 27853); assay: MIC, P. aeruginosa; settings: for MIC: Pseudomonas aeruginosa
[8] = system: Enterococcus faecium (ATCC 19434); assay: MIC, E. faecium
MRSA cells [9] = assay: DHNA level in treated MRSA cells by LC/UV/MS; settings: MRSA cells treated with 8 µg/mL for 18 hr
E. coli (ATCC 25922) = assay: MIC, E. coli; settings: for MIC: Escherichia coli
[10] = system: Klebsiella pneumoniae (ATCC 13883); assay: MIC, K. pneumoniae; settings: for MIC: Klebsiella pneumoniae
[11] = system: Haemophilus influenzae (ATCC 49427); assay: MIC, H. influenzae; settings: for MIC: Haemophilus influenzae
saMenB = saMenB (Staphylococcus aureus, UniProt Q5HH38); assay: Isothermal titration calorimetry with saMenB; assay type: binding, S. aureus
Chain of saMenB (Q5HH38 whole entry): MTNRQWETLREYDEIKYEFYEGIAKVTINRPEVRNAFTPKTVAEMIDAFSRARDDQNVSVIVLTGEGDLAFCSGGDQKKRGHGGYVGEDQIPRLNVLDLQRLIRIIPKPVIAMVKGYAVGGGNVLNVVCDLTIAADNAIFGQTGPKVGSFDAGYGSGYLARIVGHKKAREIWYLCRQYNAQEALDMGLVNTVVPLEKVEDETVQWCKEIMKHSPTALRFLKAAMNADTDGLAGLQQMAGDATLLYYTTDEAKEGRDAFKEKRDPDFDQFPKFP

Question: Which MIC (MSSA (ATCC 25923)) does the source give for `COC(=O)C=CC(=O)c1ccc(Cl)cc1` [Compound 1, methyl 4-(4-chlorophenyl)-4-oxobut-2-enoate] here?
Answer: The MIC was 0.35 µg/mL (≈ 1.56 µM).

Question: What about the “Survival rate (days post infection)” value (MRSA [1]) of the same compound?
Answer: The value was 4.6 days.

Question: What about the MIC ([2]; ATCC6051, read-out: MIC + MK-4) of the same compound?
Answer: Its MIC is over 60 µg/mL.

Question: And the MIC ([2]; ATCC6051, read-out: MIC aerobic)?
Answer: Its MIC is 8 µg/mL (≈ 35.6 µM).

Question: What about the MIC ([2]; ATCC6051, read-out: MIC anaerobic) of the same compound?
Answer: Its MIC is 2 µg/mL (≈ 8.9 µM).

Question: And the MIC ([2]; ATCC6051, read-out: MIC capnophilic)?
Answer: The MIC was 4 µg/mL (≈ 17.8 µM).

Question: What about the Colony morphology (MRSA [3]; MRSA on TSA with 4 µg/mL (½ agar MIC), 48 hr) of the same compound?
Answer: The Colony morphology was “SCV phenotype”.

Question: And the “Growth with MK-4 complementation” value (MRSA [3]; MRSA on TSA with 16 µg/mL (2x agar-MIC) and 10 µM MK-4)?
Answer: Its value is “wild-type growth”.

Question: What about the “Agar MIC” value (MRSA [3]; MRSA on tryptic soy agar, no growth after 72 hr) of the same compound?
Answer: The value was 8 µg/mL.

Question: And the MIC aerobic (M. tuberculosis)?
Answer: The MIC aerobic was 0.64 µg/mL (≈ 2.85 µM).

Question: What about the MIC aerobic ([4]; P. mirabilis, aerobic) of the same compound?
Answer: The MIC aerobic was “no activity”.

Question: What about the MIC ([4]; ATCC35659, read-out: MIC + MK-4) of the same compound?
Answer: The MIC was 31.5 µg/mL.

Question: What about the MIC ([4]; ATCC35659, read-out: MIC aerobic) of the same compound?
Answer: Its MIC is over 60 µg/mL.

Question: And the MIC ([4]; ATCC35659, read-out: MIC anaerobic)?
Answer: Its MIC is 12.5 µg/mL (≈ 55.6 µM).

Question: And the MIC ([4]; ATCC35659, read-out: MIC capnophilic)?
Answer: Its MIC is 12.5 µg/mL (≈ 55.6 µM).

Question: What about the “Change in MK-8 with increasing concentration” value (MRSA cells [5]) of the same compound?
Answer: Its value is “dose dependent decrease”.

Question: And the MIC (MRSA (BAA 1762); read-out: MIC + MK-4)?
Answer: Its MIC is over 60 µg/mL.

Question: And the MIC (MRSA (BAA 1762); read-out: MIC MRSA)?
Answer: Its MIC is 0.75 µg/mL (≈ 3.34 µM).

Question: And the MIC (MRSA (BAA 1762); read-out: MIC aerobic)?
Answer: The MIC was 0.75 µg/mL (≈ 3.34 µM).

Question: And the MIC (MRSA (BAA 1762); read-out: MIC anaerobic)?
Answer: The MIC was 0.37 µg/mL (≈ 1.65 µM).

Question: What about the MIC (MRSA (BAA 1762); read-out: MIC capnophilic) of the same compound?
Answer: Its MIC is 0.37 µg/mL (≈ 1.65 µM).

Question: What about the “Reduction of bacterial load in thigh” value (MRSA [6]) of the same compound?
Answer: The value was 3.1 log CFU/gram tissue.

Question: And the “Dose dependence of bacterial burden in thigh” value (MRSA [6]; neutropenic mice, 25, 50 and 100 mg/kg SC)?
Answer: Its value is “dose dependent reduction”.

Question: And the MIC aerobic ([7]; P. aeruginosa, aerobic)?
Answer: The MIC aerobic was “no activity”.

Question: What about the MIC anaerobic ([7]; P. aeruginosa, anaerobic (GasPak)) of the same compound?
Answer: The MIC anaerobic was “no activity”.

Question: And the MIC capnophilic ([7]; P. aeruginosa, capnophilic (candle jar))?
Answer: Its MIC capnophilic is “no activity”.

Question: What about the MIC ([7]; ATCC27853, read-out: MIC aerobic) of the same compound?
Answer: Its MIC is over 60 µg/mL.

Question: And the MIC ([7]; ATCC27853, read-out: MIC anaerobic)?
Answer: Its MIC is over 60 µg/mL.

Question: And the MIC ([7]; ATCC27853, read-out: MIC capnophilic)?
Answer: Its MIC is over 60 µg/mL.

Question: What about the MIC ([8]; ATCC19434, read-out: MIC + MK-4) of the same compound?
Answer: The MIC was 31.5 µg/mL.

Question: What about the MIC ([8]; ATCC19434, read-out: MIC aerobic) of the same compound?
Answer: The MIC was 4 µg/mL (≈ 17.8 µM).

Question: What about the MIC ([8]; ATCC19434, read-out: MIC anaerobic) of the same compound?
Answer: The MIC was 1.25 µg/mL (≈ 5.56 µM).

Question: And the MIC ([8]; ATCC19434, read-out: MIC capnophilic)?
Answer: The MIC was 2.5 µg/mL (≈ 11.1 µM).

Question: And the “DHNA in treated cells” value (MRSA cells [9])?
Answer: The value was “could not be detected”.

Question: What about the MIC aerobic (E. coli (ATCC 25922); E. coli, aerobic) of the same compound?
Answer: Its MIC aerobic is “no activity”.

Question: What about the MIC (E. coli (ATCC 25922); ATCC25922, read-out: MIC + MK-4) of the same compound?
Answer: The MIC was over 60 µg/mL.

Question: What about the MIC (E. coli (ATCC 25922); ATCC25922, read-out: MIC aerobic) of the same compound?
Answer: Its MIC is over 60 µg/mL.

Question: What about the MIC (E. coli (ATCC 25922); ATCC25922, read-out: MIC anaerobic) of the same compound?
Answer: The MIC was 15.5 µg/mL (≈ 69 µM).

Question: And the MIC (E. coli (ATCC 25922); ATCC25922, read-out: MIC capnophilic)?
Answer: The MIC was 15.5 µg/mL (≈ 69 µM).

Question: What about the MIC aerobic ([10]; K. pneumoniae, aerobic) of the same compound?
Answer: Its MIC aerobic is “no activity”.

Question: And the MIC anaerobic ([10]; K. pneumoniae, anaerobic (GasPak))?
Answer: The MIC anaerobic was 62.5 µg/mL (≈ 278 µM).

Question: What about the MIC ([10]; ATCC13883, read-out: MIC + MK-4) of the same compound?
Answer: The MIC was over 60 µg/mL.

Question: What about the MIC ([10]; ATCC13883, read-out: MIC aerobic) of the same compound?
Answer: Its MIC is over 60 µg/mL.

Question: What about the MIC ([10]; ATCC13883, read-out: MIC anaerobic) of the same compound?
Answer: The MIC was 62.5 µg/mL (≈ 278 µM).

Question: And the MIC ([10]; ATCC13883, read-out: MIC capnophilic)?
Answer: Its MIC is over 60 µg/mL.

Question: And the MIC capnophilic ([11]; H. influenzae, capnophilic (candle jar))?
Answer: Its MIC capnophilic is 0.25 µg/mL (≈ 1.11 µM).

Question: And the MIC ([11]; ATCC49427, read-out: MIC + MK-4)?
Answer: Its MIC is over 60 µg/mL.

Question: And the MIC ([11]; ATCC49427, read-out: MIC capnophilic)?
Answer: The MIC was 0.25 µg/mL (≈ 1.11 µM).

Question: With `COC(=O)C=CC(=O)c1ccc([N+](=O)[O-])cc1` [Compound 4] as the compound, how does the “MIC MSSA” value (MSSA (ATCC 25923)) read?
Answer: Its value is 4 µg/mL (≈ 17 µM).

Question: And the “MIC MRSA” value (MRSA (BAA 1762))?
Answer: Its value is 4 µg/mL (≈ 17 µM).

Question: Which results are given for `Cc1onc(-c2ccccc2)c1C(=O)N[C@@H]1C(=O)N2[C@@H]1SC(C)(C)[C@@H]2C(=O)O` [Oxacillin, reference compound]?
Answer: MIC (MSSA (ATCC 25923)): 0.1 µg/mL (≈ 0.249 µM); Survival rate (days post infection) (MRSA [1]): 1.5 to 1.6 days; MIC (MRSA (BAA 1762); read-out: MIC MRSA): > 128 µg/mL; Reduction of bacterial load in thigh (MRSA [6]): minimal effect

Question: What does the source list for `CN[C@H](CC(C)C)C(=O)N[C@H]1C(=O)N[C@@H](CC(N)=O)C(=O)N[C@H]2C(=O)N[C@H]3C(=O)N[C@H](C(=O)N[C@H](C(=O)O)c4cc(O)cc(O)c4-c4cc3ccc4O)[C@H](O)c3ccc(c(Cl)c3)Oc3cc2cc(c3O[C@@H]2O[C@H](CO)[C@@H](O)[C@H](O)[C@H]2O[C@H]2C[C@](C)(N)[C@H](O)[C@H](C)O2)Oc2ccc(cc2Cl)[C@H]1O` [Vancomycin, reference compound]?
Answer: MIC (MSSA (ATCC 25923)): 2 µg/mL (≈ 1.38 µM); Survival rate (days post infection) (MRSA [1]): 5.8 days; MIC (MRSA (BAA 1762); read-out: MIC MRSA): 4 µg/mL (≈ 2.76 µM); Reduction of bacterial load in thigh (MRSA [6]): 4.2 log CFU/gram tissue

Question: With `CC(C)(COP(=O)(O)OP(=O)(O)OC[C@H]1O[C@@H](n2cnc3c(N)ncnc32)[C@H](O)[C@@H]1OP(=O)(O)O)[C@@H](O)C(=O)NCCC(=O)NCCS` [CoA, coenzyme A] as the compound, how does the Kd (saMenB) read?
Answer: The Kd was 25 ± 4 µM.

Question: For `COC(=O)C=CC(=O)c1ccc(Cl)cc1Cl` [Compound 5], which “MIC MSSA” value (MSSA (ATCC 25923)) is on record?
Answer: Its value is 1 µg/mL (≈ 3.86 µM).

Question: And the “MIC MRSA” value (MRSA (BAA 1762))?
Answer: Its value is 2 µg/mL (≈ 7.72 µM).

Question: With `O=C(O)C=CC(=O)c1ccc(Cl)cc1` [Compound 6] as the compound, how does the “MIC MSSA” value (MSSA (ATCC 25923)) read?
Answer: Its value is over 60 µg/mL.

Question: What about the “MIC MRSA” value (MRSA (BAA 1762)) of the same compound?
Answer: The value was over 60 µg/mL.

Question: With `COC(=O)C=CC(=O)c1ccc(Br)cc1` [Compound 3] as the compound, how does the “MIC MSSA” value (MSSA (ATCC 25923)) read?
Answer: The value was 8 µg/mL (≈ 29.7 µM).

Question: What about the “MIC MRSA” value (MRSA (BAA 1762)) of the same compound?
Answer: Its value is 16 µg/mL (≈ 59.5 µM).

Question: Which results are given for `COC(=O)C=CC(=O)c1ccc(F)cc1` [Compound 2]?
Answer: MIC MSSA (MSSA (ATCC 25923)): 8 µg/mL (≈ 38.4 µM); MIC MRSA (MRSA (BAA 1762)): 12 µg/mL (≈ 57.6 µM)
